Test results published in paper PMC11364775, “Ion occupancy of the selectivity filter controls opening of a cytoplasmic gate in the K2P channel TALK-2” (Nature Communications, 2024).

Legend:
WT TALK-2 channels = biological target: T1, WT TALK-2 channels (Homo sapiens, UniProt Q96T54); test: Conductance-voltage (G-V) curves from tail currents, V1/2 (intracellular Rb+); assay type: cell-based; parameters: expressed in transfected cells; host or cells: Xenopus laevis oocytes (cRNA injection), excised inside-out patches; conditions: for Normalized current: TALK-2 WT + 1 mM 2-APB
T1 sequence (Q96T54 1-332): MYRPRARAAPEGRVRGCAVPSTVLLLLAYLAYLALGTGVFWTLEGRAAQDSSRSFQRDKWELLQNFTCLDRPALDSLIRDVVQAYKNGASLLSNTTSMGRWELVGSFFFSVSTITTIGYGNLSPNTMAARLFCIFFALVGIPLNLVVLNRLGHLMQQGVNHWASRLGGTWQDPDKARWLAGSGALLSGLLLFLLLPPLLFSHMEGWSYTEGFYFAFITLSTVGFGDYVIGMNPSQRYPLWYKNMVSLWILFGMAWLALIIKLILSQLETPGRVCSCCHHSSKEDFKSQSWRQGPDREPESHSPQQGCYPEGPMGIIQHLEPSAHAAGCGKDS
Text: The voltage-dependent activation mechanism of the SF gate in K2P channels allows to estimate the electrical work (ΔG = zFΔV1/2) required for pore opening by fitting the G–V curve to a Boltzmann equation. […] The open state represents the situation of both gates being simultaneously open but voltage can only exert force on the SF gate that functions as voltage sensor. […] We further tested whether mutations that open the lower gate (L262A and L264A) would affect the extracellular pH sensitivity. […] We further explored this concept of allosteric coupling using the mutations identified in the functional alanine screen of TM2 and TM4. […]
Conductance-voltage (G–V) relationships were determined from tail currents recorded at a holding potential (VH) of −80 mV after 300 ms depolarizing steps as indicated in the respective figure legend. Data were analyzed with a single Boltzmann fit following Eq. 6:6 GV=Imax/1+e^V−V1/2/slope+Ibase where V1/2 represents the voltage of half-maximal activation, s is the slope factor and Imax and Ibase represent the upper and lower asymptotes. Under appropriate experimental conditions, you can use slope to calculate the valence (charge) of the ion moving across the channel. Slope equals R * T/ z * F where R is the universal gas constant, T is temperature in K, F is the Faraday constant, and z is the valence.

[1] = biological target: T2, WT TALK-2 channels (human K2P17.1) (Homo sapiens, UniProt Q96T54); test: Inside-out patch-clamp, ligand activation of channel currents at +40 mV (oocytes)
T2 sequence (Q96T54 1-332): T1 sequence (Q96T54 1-332)
Method: Oocytes were surgically removed from anesthetized adult females, treated with type II collagenase (Sigma-Aldrich/Merck, Germany) and manually defolliculated. 50 nl of a solution containing the K^+ channel specific cRNA was injected into Dumont stage V - VI oocytes and subsequently incubated at 17 °C in a solution containing (mM): 54 NaCl, 30 KCl, 2.4 NaHCO3, 0.82 MgSO4 x 7 H2O, 0.41 CaCl2, 0.33 Ca(NO3)2 x 4 H2O and 7.5 TRIS (pH 7.4 adjusted with NaOH/HCl) for 1–7 days before use. Electrophysiological recordings: Excised patch measurements in inside-out configuration under voltage-clamp conditions were performed at room temperature (22 – 24 °C). […] Intracellular bath solutions and compounds were applied to the cytoplasmic side of excised patches for the various K^+ channels via a gravity flow multi-barrel pipette system. Intracellular solution had the following composition (in mM): 120 KCl, 10 HEPES, 2 EGTA and 1 Pyrophosphate (pH adjusted with KOH/HCl). In other intracellular bath solutions, K^+ was replaced by Rb^+ (pH 7.4 adjusted with RbOH/HCl). Currents were recorded with an EPC10 amplifier (HEKA electronics, Germany) and sampled at 10 kHz or higher and filtered with 3 kHz (-3 dB) or higher as appropriate for sampling rate.
Recorded currents were analyzed from stable membrane patches at a voltage defined in the respective figure legend or with a voltage protocol as indicated in the respective figure. The fold activation (fold change in (tail) current amplitude) of a ligand (drug or bioactive lipid) was calculated from Eq. 1:1 Fold activationFA=Iactivated/Ibasal where Iactivated represents the stable current level in the presence of a given concentration of a respective ligand and Ibasal the measured current before ligand application. Percentage inhibition or residual currents upon blocker application for a ligand (drug or bioactive lipid) was calculated from stable currents of excised membrane patches using the following Eqs. 2 and 3:2 %inhibition=1−Iinhibited/Ibasal*100 3 Residual current=100−%inhibition where Iinhibited refers to the stable current level recorded in the presence of a given concentration of a drug or bioactive lipid and Ibasal to the measured current before ligand application. The macroscopic half-maximal concentration-inhibition relationship of a ligand was obtained using a Hill-fit for dose-response curves as depicted in Eq. 4:4 %inhibition/activation=Ibase+Imax−Ibase/1+x1/2/x^rate where base and max are the currents in the absence and presence of a respective ligand, x is the concentration of the ligand, x1/2 is the ligand concentration at which the activatory or inhibitory effect is half-maximal, rate is the Hill coefficient.

NCCOB(c1ccccc1)c1ccccc1 [2-APB, 2-aminoethoxydiphenyl borate]
V1/2 shift (mV) (WT TALK-2 channels; 1 mM 2-APB, shift of G-V curve): 26.9 mV
Normalized current (WT TALK-2 channels; Voltage 0.000): 0.204
Normalized current (WT TALK-2 channels; Voltage 0.005): 0.227
Normalized current (WT TALK-2 channels; Voltage 0.010): 0.255
Normalized current (WT TALK-2 channels; Voltage 0.015): 0.290
Normalized current (WT TALK-2 channels; Voltage 0.020): 0.331
Normalized current (WT TALK-2 channels; Voltage 0.025): 0.376
Normalized current (WT TALK-2 channels; Voltage 0.030): 0.427
Normalized current (WT TALK-2 channels; Voltage 0.035): 0.474
Normalized current (WT TALK-2 channels; Voltage 0.040): 0.520
Normalized current (WT TALK-2 channels; Voltage 0.045): 0.565
Normalized current (WT TALK-2 channels; Voltage 0.050): 0.611
Normalized current (WT TALK-2 channels; Voltage 0.055): 0.652
Normalized current (WT TALK-2 channels; Voltage 0.060): 0.689
Normalized current (WT TALK-2 channels; Voltage 0.065): 0.723
Normalized current (WT TALK-2 channels; Voltage 0.070): 0.754
Normalized current (WT TALK-2 channels; Voltage 0.075): 0.784
Normalized current (WT TALK-2 channels; Voltage 0.080): 0.809
Normalized current (WT TALK-2 channels; Voltage 0.085): 0.834
Normalized current (WT TALK-2 channels; Voltage 0.090): 0.854
Normalized current (WT TALK-2 channels; Voltage 0.095): 0.872
Normalized current (WT TALK-2 channels; Voltage 0.100): 0.891
Normalized current (WT TALK-2 channels; Voltage 0.105): 0.905
Normalized current (WT TALK-2 channels; Voltage 0.110): 0.919
Normalized current (WT TALK-2 channels; Voltage 0.115): 0.931
Normalized current (WT TALK-2 channels; Voltage 0.120): 0.943
Normalized current (WT TALK-2 channels; Voltage 0.125): 0.952
Normalized current (WT TALK-2 channels; Voltage 0.130): 0.961
Normalized current (WT TALK-2 channels; Voltage 0.135): 0.972
Normalized current (WT TALK-2 channels; Voltage 0.140): 0.971
Normalized current (WT TALK-2 channels; Voltage 0.145): 0.979
Normalized current (WT TALK-2 channels; Voltage 0.150): 0.985
Normalized current (WT TALK-2 channels; Voltage 0.155): 0.989
Normalized current (WT TALK-2 channels; Voltage 0.160): 0.992
Normalized current (WT TALK-2 channels; Voltage -0.005): 0.187
Normalized current (WT TALK-2 channels; Voltage -0.010): 0.175
Normalized current (WT TALK-2 channels; Voltage -0.015): 0.167
Normalized current (WT TALK-2 channels; Voltage -0.020): 0.158
Normalized current (WT TALK-2 channels; Voltage -0.025): 0.153
Normalized current (WT TALK-2 channels; Voltage -0.030): 0.148
Normalized current (WT TALK-2 channels; Voltage -0.035): 0.143
Normalized current (WT TALK-2 channels; Voltage -0.040): 0.140
Normalized current (WT TALK-2 channels; Voltage -0.045): 0.136
Normalized current (WT TALK-2 channels; Voltage -0.050): 0.131
Normalized current (WT TALK-2 channels; Voltage -0.055): 0.128
Normalized current (WT TALK-2 channels; Voltage -0.060): 0.125
Normalized current (WT TALK-2 channels; Voltage -0.065): 0.121
Normalized current (WT TALK-2 channels; Voltage -0.070): 0.118
Normalized current (WT TALK-2 channels; Voltage -0.075): 0.115
Normalized current (WT TALK-2 channels; Voltage -0.080): 0.114
Normalized current (WT TALK-2 channels; Voltage -0.085): 0.112
Normalized current (WT TALK-2 channels; Voltage -0.090): 0.113
Normalized current (WT TALK-2 channels; Voltage -0.095): 0.112
Normalized current (WT TALK-2 channels; Voltage -0.100): 0.112
Normalized current (WT TALK-2 channels; Voltage -0.105): 0.111
Normalized current (WT TALK-2 channels; Voltage -0.110): 0.110
Normalized current (WT TALK-2 channels; Voltage -0.115): 0.110
Normalized current (WT TALK-2 channels; Voltage -0.120): 0.111
V1/2 (WT TALK-2 channels; TALK-2 WT, 1 mM ligand): 44.7 mV
EC50 [1]: 421 ± 34 µM
Fold activation 1 mM 2-APB ([1]; 1 mM, TALK-2 WT): 26.51 fold
Normalized currents ([1]; TALK-2 WT, 0.1 µM 2-APB): 0.04
Normalized currents ([1]; TALK-2 WT, 1 µM 2-APB): 0.04
Normalized currents ([1]; TALK-2 WT, 10 µM 2-APB): 0.05
Normalized currents ([1]; TALK-2 WT, 100 µM 2-APB): 0.19
Normalized currents ([1]; TALK-2 WT, 500 µM 2-APB): 0.58
Normalized currents ([1]; TALK-2 WT, 1000 µM 2-APB): 0.87
Normalized currents ([1]; TALK-2 WT, 2000 µM 2-APB): 1.00
